Measurements: paper PMC9176062, “Phase Ib study of combinations of avadomide (CC‐122), CC‐223, CC‐292, and rituximab in patients with relapsed/refractory diffuse large B‐cell lymphoma” (EJHaem, 2022)

Legend:
DOHH2 and RL cells = assay: Antibody-dependent, cell-mediated cytotoxicity (NK cells vs tumor cells, flow cytometry); assay type: cell-based; details: two DLBCL cell lines; NK cells pretreated with avadomide 1–100 nM, rituximab 1 μg/mL
Protocol: Purified natural killer (NK) cells from patient peripheral blood mononuclear cell samples were treated with 10 ng/mL rh-IL-2 (R&D) alone or with avadomide (1–100 nM) for 24 hours at 37°C. Cells (1 × 10^6 cells/mL) from 2 FL cell lines, DOHH2 and RL, were stained with CellTrace carboxyfluorescein succinimidyl ester (CFSE; Thermo Fisher Scientific) (200 nmol/L) for 5 minutes at room temperature, then treated with dimethyl sulfoxide (DMSO; vehicle) or rituximab (1 μg/mL) for 1 hour prior to coculture. Target tumor DOHH2 and RL cells (2 × 10^4 cells) were added to DMSO or avadomide pretreated effector NK cells at a 1:5 ratio (target to effector cells) and were incubated for 4 hours at 37°C. Cells were stained with Annexin V-PE and TO-PRO-3 (Thermo Fisher Scientific) according to the manufacturer’s instructions. The percentage of tumor apoptosis was determined by sequential gating for CFSE-positive and double-positive (Annexin V-PE and TO-PRO-3–positive) cells.
FIGURE S1 Change in the percentage of apoptotic cells over time (A) and in vivo tumor growth response after combination treatment with avadomide and rituximab (B). Natural killer cell activity against DOHH or RL FL cell lines determined by flow cytometry is shown (A). […]

Aiolos = assay: Blood pharmacodynamic biomarker Aiolos in CD3+ T cells and CD19+ B cells; assay type: in vivo, human; details: arm B (with CC‐292), 3 h post‐dose; for median decline in Aiolos levels: 1 mg of CC‐122; for decline in Aiolos levels: 2‐mg CC‐122 group
Protocol: AEs were assessed according to the National Cancer Institute Common Terminology Criteria for AEs, version 4.03, up to 28 days after the last treatment. Blood samples for PK analysis were collected on days 15 to 28, predose, and at 1.5 and 3 h post‐dose on days 1 and 15 of cycle 1 for all dose cohorts. Additional blood samples were collected on day 15 from patients in dose level 2 of arm C to examine CC‐223 and CC‐292 steady‐state PK. Pharmacodynamic biomarkers of each novel agent were explored at baseline and cycle 1, day 1 (pre‐dose, and at 1.5 and 3 h) and cycle 1, day 15 (pre‐dose, and at 1.5 and 3 h), including cereblon modulation substrates in B and T cells in patients treated with CC‐122 and mTOR signaling pathway biomarkers (e.g., p4EBP1 and pAKT) in patients treated with CC‐223. Tumor assessments were performed at screening and at the end of even‐numbered cycles through cycle 6, then every three cycles through cycle 12, and every 6 months thereafter. Responses were assessed by the investigator per International Working Group 2007 criteria.
Safety analyses were performed on all patients who received ≥1 dose of study treatment (safety population). The PK population comprised all patients who took ≥1 dose of study treatment and had ≥1 measured drug concentration. […] The biomarker‐evaluable population comprised all patients who took ≥1 dose of study treatment and had ≥1 pharmacodynamic assessment. Safety and efficacy analyses were based on the safety population except where noted (PK and biomarkers). PK parameters were calculated using actual times relative to the most recent administration. The median duration of response (DOR) and median PFS were calculated per the Kaplan‐Meier method.
Per cent change from baseline in Aiolos in CD3+ T cells (A) and CD19+ B cells (B) and in p4EBP1 (C) and pAKT (D) at 3 h post‐dose on day 1 of cycle 1 (biomarker‐evaluable population). The change in Aiolos expression in CD3+ T cells and CD19+ B cells was calculated within each avadomide‐ and CC‐223‐containing arm. *p ≤ 0.05 versus baseline; **p ≤ 0.01 versus baseline; ***p ≤ 0.001 versus baseline; DL, dose level; MEFL, molecules of equivalent fluorescence label; NS, not significant

patients with R/R DLBCL = assay: Treatment duration, modification, and exposure; assay type: in vivo; details: human, in vivo
Protocol: CC‐122 hydrochloride, referred to here as CC‐122, as an active pharmaceutical ingredient in capsule (AIC) formulation, was administered orally once daily (QD). An alternate intermittent schedule of CC‐122 QD for five of every seven consecutive days (5/7), which improved tolerability and reduced the frequency and severity of neutropenia in a study of CC‐122 monotherapy in DLBCL, was also explored. CC‐292 was administered orally twice daily (BID) and CC‐223 was administered orally QD. Rituximab was administered on day 8 of cycle 1, day 1 of cycles 2–6, and day 1 of every third cycle thereafter. Patients in arm A received CC‐122 and CC‐223 with or without rituximab (starting at CC‐122 2 mg QD and CC‐223 20 mg QD), patients in arm B received CC‐122 plus CC‐292 with or without rituximab (starting at CC‐122 2 mg QD and CC‐292 500 mg BID), patients in arm C were treated with CC‐223 and CC‐292 (starting at CC‐223 20 mg QD and CC‐292 500 mg BID), and those in arm D received CC‐122 plus rituximab (starting at CC‐122 2 mg QD). In arm D, a CC‐122 3 mg formulated capsule was introduced with the same strength as CC‐122 3 mg AIC. Each dose level was cleared before the next was started. If unacceptable toxicity occurred at the initial dose level, dose reductions for CC‐122 (1.5 mg QD and 1 mg QD) and CC‐223 (15 mg QD) were allowed; no starting dose reductions for CC‐292 were planned. For arm A, the Safety Review Committee (SRC) determined which of the two drugs in the doublet to reduce. For arms B and D, the CC‐122 dose was reduced and for arm C, the CC‐223 dose was reduced. Assignment of patients to study arms was at the discretion of the investigator and based on slot availability per the study design.
Patients who experienced dose‐limiting toxicity (DLT) after receiving ≥1 dose of study treatment or those who received ≥80% of planned doses of CC‐122, CC‐223, CC‐292, and rituximab during cycle 1 without experiencing a DLT were considered DLT‐evaluable. If zero out of ≥3 or ≤1 out of six evaluable patients in a cohort experienced a DLT during cycle 1 in parallel dose cohorts, then dose escalation could occur. DLTs are defined in the Supplementary Materials; individual investigators performed response assessments and determined DLTs. The NTD was defined as the dose level at which ≥2 of six evaluable patients in a cohort experienced a DLT during cycle 1. […] During cycle 1, any adverse event (AE) that led to dose reduction was considered a DLT. Patients could resume CC‐122 at a reduced dose only if they recovered to grade ≤1 within 14 days of dose interruption; two dose reductions were allowed before the patient was withdrawn from the study. Dose reductions were permitted for CC‐122, CC‐223, and CC‐292; no dose reductions were allowed for rituximab, but treatment could be discontinued at the discretion of the investigator. […] For arms A, B, and D, CC‐122 dosing was modified to the intermittent 5/7‐day schedule based on SRC review and escalated until the MTD/RP2D was established. Treatment was given until disease progression, unacceptable toxicity, or patient/physician decision to withdraw consent.
^aTreatment duration defined as date of last derived dose – date of first dose + 1.
^bDefined as the ratio of actual dose received to planned dose over the treatment period.

DOHH2 cells = assay: DOHH2 xenograft model; assay type: in vivo; details: DLBCL xenograft model (DOHH2, SCID mice); avadomide oral once daily, rituximab 1 mg/kg once weekly
Protocol: Female severe combined immunodeficiency (SCID) mice (CB17/Icr-Prkdcscid, Charles River) were 8 weeks old, with body weights ranging from 15.0 g to 23.2 g on day 1 of these studies. Each SCID mouse was injected subcutaneously in the right flank with 5 × 10^6 DOHH2 cells (0.2-mL cell suspension). Tumors were calipered in 2 dimensions to monitor growth as their mean volume approached 100 to 150 mm^3. Fourteen days after tumor cell implantation, mice were sorted into treatment groups of 10 mice per group. Tumors were calipered twice weekly during the study. Avadomide was suspended in 0.5% carboxymethyl cellulose (0.25% Tween-80 in deionized water). Vehicle control and avadomide were each administered via oral gavage once daily; rituximab (1 mg/kg) was administered once weekly for the duration of the study.
FIGURE S1 Change in the percentage of apoptotic cells over time (A) and in vivo tumor growth response after combination treatment with avadomide and rituximab (B). Natural killer cell activity against DOHH or RL FL cell lines determined by flow cytometry is shown (A). Female CB17 severe combined immunodeficiency mice implanted subcutaneously with DOHH2 cells were administered vehicle and avadomide once daily and rituximab given 1 mg/kg once weekly (B). SEM, standard error of the mean; TGI, tumor growth inhibition. mm^3

Cc1nc2cccc(N)c2c(=O)n1C1CCC(=O)NC1=O (stereo not drawn) [CC‐122, Avadomide]
rituximab‐mediated antibody‐dependent cell‐mediated cytotoxicity (DOHH2 and RL cells): enhancement
median decline in Aiolos levels (Aiolos; CD3+ T cells): approximately 20%
decline in Aiolos levels (Aiolos; CD3+ T cells): approximately 40%
median decline in Aiolos levels (Aiolos; CD19+ B cells): ~5%
decline in Aiolos levels (Aiolos; CD19+ B cells): ~32%
patients with dose reductions of the drug (patients with R/R DLBCL): 20.5%
≥1 dose interruption (patients with R/R DLBCL): 59 (67.0) n (%)
≥1 dose interruption: Adverse event (patients with R/R DLBCL): 49 (55.7) n (%)
≥1 dose interruption: Other (patients with R/R DLBCL): 35 (39.8) n (%)
≥1 dose interruption: Per protocol (patients with R/R DLBCL): 6 (6.8) n (%)
≥1 dose reduction (patients with R/R DLBCL): 18 (20.5) n (%)
≥1 dose reduction: Adverse event (patients with R/R DLBCL): 11 (12.5) n (%)
≥1 dose reduction: Other (patients with R/R DLBCL): 5 (5.7) n (%)
≥1 dose reduction: Per protocol (patients with R/R DLBCL): 1 (1.1) n (%)
tumor growth inhibition (TGI) (DOHH2 cells): 28%
